The values that follow come from patent US11260048B2, “Compounds and compositions for inhibiting retinal pigment epithelium degeneration and methods using the same” (The Schepens Eye Research Institute, Inc., priority 2017, dated 2022).

One may read the EC50 as the concentration at which the effect is half-maximal.

Molecules are shown by their SMILES. Entries after “also recorded” stand apart in the source; their conditions may differ.

For experiment [1], the system named is ARPE-19 cells. Kind of experiment: RPE protection assay: ox-LDL-induced cell death, LDH release. The experiment is classed as cell-based, Human. As to conditions: for cytotoxicity at 0.43 µM: compound 0.43 μM; for cytotoxicity at 1.4 µM: compound 1.4 μM; for protective effect against ox-LDL-induced RPE cell death: high dose 10.4 μM; for relative RPE protective activity compared with other compounds: ox-LDL 200 μg/ml (FIGS. 5, 7); for cytotoxicity at 4.3 µM: compound 4.3 μM. How it is done: FIG. 2 is a graph showing dose-dependent inhibition of ox-LDL-induced RPE death by trolox. […] Data=mean±standard error of the mean (SEM), non-linear regression (GraphPad Prism 6).
FIGS. 5B and 5C are graphs showing RPE protection by selective anti-oxidants with a hindered phenol group. ARPE-19 cells were treated with ox-LDL (200 μg/ml) with and without different concentrations of various anti-oxidants. Cell death was measured by LDH release assay. Data=mean±SEM, *P<0.05, ***P<0.001 compared to ox-LDL group, ANOVA.
FIG. 6 is a graph comparing RPE protection activity of hindered phenol-containing 2,2,5,7,8-pentamethyl-6-chromanol (PMC) and selective inhibitors of nucleotide-binding domain, leucine-rich-containing family, pyrin domain-containing-3 (NLRP3) inflammasome activation. ARPE-19 cells were treated with ox-LDL (200 μg/ml) with and without different concentrations of PMC and selective inhibitors of NLRP3 inflammasome activation, MCC950 and isoliquiritigenin. Cell death was measured by LDH release assay. Data=mean±SEM, ***P<0.001 compared to ox-LDL group, ANOVA.
FIGS. 7B and 7C are graphs that show RPE protection by different experimental analogs of trolox and BHT. ARPE-19 cells were treated with ox-LDL (200 μg/ml) with and without different concentrations of the different analogs of trolox and BHT for 48 hours, cell death was determined by LDH assay. Note that many of the compounds were able to suppress ox-LDL-induced cell death similar to PMC. Data=mean±SEM, *P<0.05, ***P<0.001 compared to ox-LDL group, ANOVA.
ARPE-19 cells: Human ARPE-19 cells (ATCC, Manassas, Va.) were propagated as described previously (Tseng, W. A., et al., Invest Ophthalmol Vis Sci, 2013. 54(1): p. 110-20). Cells were cultured in DMEMIF12 medium (Lonza, Walkersville, Md.) supplemented with 10% fetal bovine serum (FBS) (Atlanta Biologicals, Lawrenceville, Ga.), 2 mM L-glutamine (Lonza), and 100 U/ml penicillin−100 μg/ml streptomycin (Lonza) (complete media), and passaged at a ratio of 1:2 to 1:4 using trypsin-versene (Lonza). Prior to experiments, cells were maintained in 1% FBS medium for about 3 weeks to obtain ARPE-19 cells with differentiated phenotypes. The transepithelial electrical resistance (TER) of each batch of ARPE-19 cells was measured in cells cultured on laminin-coated 0.4 μm-pore transwell membranes (Corning, Mass.) to ensure it was at least 50 ohm·cm2 (EVOM2 Voltohmmeter, World Precision Instruments, Inc., Sarasota, Fla.) before the cells were used for experiments.
ARPE-19 cells were treated with ox-LDL (200 μg/ml) with and without different concentrations of the selected analogs for 48 hours, cell death was determined by LDH assay.
Background: LDH in the medium is a marker of cell lysis.

The test system of experiment [2] is ARPE-19 cells. Kind of experiment: Lysosomal integrity, LysoTracker staining. The experiment is classed as cell-based, Human. As to the method:
FIG. 3 is a graph showing that trolox dose-dependently suppresses ox-LDL-induced lysosomal destabilization in RPE. ARPE-19 cells were treated with ox-LDL with and without different concentrations of trolox for 36 hours. Lysosomal integrity was determined by LysoTracker staining (ThermoFisher Scientific), followed by image analysis to quantify the number of intact lysosomes per cell. […] Data=mean±SEM, *P<0.05, **P<0.01, ***P<0.001 compared to ox-LDL group, analysis of variance (ANOVA).
(§1) Lysosomal integrity and NF-κB activation: ARPE-19 cells were treated with ox-LDL with and without different concentrations of trolox for 36 hours. Lysosomal integrity was determined by LysoTracker staining (ThermoFisher Scientific), followed by image analysis to quantify the number of intact lysosomes per cell. […] Antibody specific for NF-κB p65 (Cell Signaling, Danvers, Mass.) was used for the immunostaining.

The test system of experiment [3] is ARPE-19 cells. Kind of experiment: ox-LDL-induced ROS formation, ROS-ID Total ROS detection kit. As to conditions: ox-LDL 200 μg/ml, 28 hours (FIG. 1).
For the next experiment, the system named is NF-κB. Kind of experiment: NF-κB activation, nuclear translocation of NF-κB p65 by immunostaining. The experiment is classed as cell-based, Human. The note with it: ox-LDL 200 μg/ml, trolox 10.4 μM, 36 hours (FIG. 4). How it is done:
as §1

Setting [4] is: Homo sapiens, ARPE-19, ox-LDL 200 μg/ml, 48 hours, LDH assay, read-out: Protective activity against 200 μg/ml ox-LDL (% cell death, compound concentration).

With `Cc1c(C)c2c(c(C)c1O)CCC(C)(C(=O)N(C)CCc1cnn(C)c1)O2` (centres unmarked) [J], the cytotoxicity at 0.43 µM with ARPE-19 cells [1] (setting [4]) is under 10%.

As for `Cc1c(C)c2c(c(C)c1O)CCC(C)(C(=O)N(C)Cc1ncon1)O2` (centres unmarked) [K], in the experiment on ARPE-19 cells [1] (setting [4]), the cytotoxicity at 1.4 µM is under 10%.

For the compound `Cc1c(C)c2c(c(C)c1O)CCC(C)(C(=O)N(C)Cc1ncc[nH]1)O2` (centres unmarked) [L], the cytotoxicity at 1.4 µM in the experiment on ARPE-19 cells [1] (setting [4]) is under 10%.

As for `CC(C)(O)c1coc(S(=O)(=O)NC(=O)Nc2c3c(cc4c2CCC4)CCC3)c1` [MCC950, reference compound], in the experiment with ARPE-19 cells [1] (ox-LDL 200 μg/ml (FIG. 6)), the “protective effect against ox-LDL-induced RPE cell death” value is listed as “did not have any protective effect”.

On to `Cc1noc(C)c1CNC(=O)C1(C)CCc2c(C)c(O)c(C)c(C)c2O1` (centres unmarked) [M], for which, in the experiment with ARPE-19 cells [1] (setting [4]), the cytotoxicity at 0.43 µM is under 10%.

For `Cc1cc2n(n1)CCN(C(=O)C1(C)CCc3c(C)c(O)c(C)c(C)c3O1)C2` (centres unmarked) [N], the cytotoxicity at 1.4 µM in the experiment on ARPE-19 cells [1] (setting [4]) is under 10%.

Turning to `Cc1c(C)c2c(c(C)c1O)CCC(C)(C(=O)N1CCC(c3ncc[nH]3)CC1)O2` (centres unmarked) [O], in the experiment with ARPE-19 cells [1] (setting [4]), the cytotoxicity at 1.4 µM was under 10%.

On to `Cc1c(C)c2c(c(C)c1O)CCC(C)(C)O2` [PMC, 2,2,5,7,8-pentamethyl-6-chromanol, reference compound], for which, in the experiment on ARPE-19 cells [1] (0.43 μM, ox-LDL 200 μg/ml (FIG. 6)), the “protection from ox-LDL-induced RPE cell death” value is over 95%. Besides, in the experiment with ARPE-19 cells [1], the “relative RPE protective activity compared with other compounds” value is “significantly more effective; also recorded: significantly more potent than trolox and butylated hydroxyl toluene (BHT)”.

Regarding `CCc1cc(CN(C)C(=O)C2(C)CCc3c(C)c(O)c(C)c(C)c3O2)on1` (centres unmarked) [P], the cytotoxicity at 0.14 µM in the experiment with ARPE-19 cells [1] (Homo sapiens, compound 0.14 μM, ARPE-19, ox-LDL 200 μg/ml, 48 hours, LDH assay, read-out: Protective activity against 200 μg/ml ox-LDL (% cell death, compound concentration)) is about 60%. Besides, the cytotoxicity at 0.43 µM in the experiment with ARPE-19 cells [1] (setting [4]) was under 10%.

`Cc1c(C)c2c(c(C)c1O)CCC(C)(C(=O)NCCNS(C)(=O)=O)O2` (centres unmarked) [Q]: in the experiment on ARPE-19 cells [1] (setting [4]), the cytotoxicity at 1.4 µM was about 50% and the cytotoxicity at 4.3 µM is under 10%.

Take `Cc1c(C)c2c(c(C)c1O)CCC(C)(C(=O)N1CCOCC1)O2` (centres unmarked) [R]: the cytotoxicity at 1.4 µM in the experiment with ARPE-19 cells [1] (setting [4]) was under 10%.

For `Cc1c(C)c2c(c(C)c1O)CCC(C)(C(=O)NCCCn1cncn1)O2` (centres unmarked) [S], the cytotoxicity at 4.3 µM in the experiment on ARPE-19 cells [1] (setting [4]) is under 10%.

Take `CCN(Cc1ccccn1)C(=O)C1(C)CCc2c(C)c(O)c(C)c(C)c2O1` (centres unmarked) [T]: the cytotoxicity at 1.4 µM with ARPE-19 cells [1] (setting [4]) was under 10%.

Consider `Cc1c(C)c2c(c(C)c1O)CCC(C)(C(=O)N1CC(n3cccn3)C1)O2` (centres unmarked) [U], for which the cytotoxicity at 1.4 µM in the experiment with ARPE-19 cells [1] (setting [4]) was under 10%.

Regarding `CCN(Cc1noc(COC)n1)C(=O)C1(C)CCc2c(C)c(O)c(C)c(C)c2O1` (centres unmarked) [V], in the experiment with ARPE-19 cells [1] (setting [4]), the cytotoxicity at 1.4 µM is about 30% and the cytotoxicity at 4.3 µM is under 10%.

Turning to `Cc1c(C)c2c(c(C)c1O)CCC(C)(C(=O)N(C)Cc1n[nH]c(=O)[nH]1)O2` (centres unmarked) [W], in the experiment with ARPE-19 cells [1] (setting [4]), the cytotoxicity at 1.4 µM is under 12%.

Regarding `Cc1coc(C)c1CN(C)C(=O)C1(C)CCc2c(C)c(O)c(C)c(C)c2O1` (centres unmarked) [X], in the experiment on ARPE-19 cells [1] (setting [4]), the cytotoxicity at 1.4 µM was about 22% and the cytotoxicity at 4.3 µM is under 16%.

In the case of `Cc1c(C)c2c(c(C)c1O)CCC(C)(C(=O)N(C)CCCn1cccn1)O2` (centres unmarked) [Y], in the experiment on ARPE-19 cells [1] (setting [4]), the cytotoxicity at 1.4 µM is about 22% and the cytotoxicity at 4.3 µM was under 21%.

As to `Cc1c(C)c2c(c(C)c1O)CCC(C)(C(=O)N1CCNC(=O)C1)O2` (centres unmarked) [ZZ], in the experiment with ARPE-19 cells [1] (setting [4]), the cytotoxicity at 1.4 µM was about 23% and the cytotoxicity at 4.3 µM is under 13%.

`Cc1c(C)c2c(c(C)c1O)CCC(C)(C(=O)N(C)Cc1cc[nH]n1)O2` (centres unmarked) [Z]: in the experiment with ARPE-19 cells [1] (setting [4]), the cytotoxicity at 1.4 µM is about 22% and the cytotoxicity at 4.3 µM is under 15%.

As for `O=C(/C=C/c1ccc(O)cc1)c1ccc(O)cc1O` [isoliquiritigenin, reference compound], the “protective effect against ox-LDL-induced RPE cell death” value in the experiment with ARPE-19 cells [1] (ox-LDL 200 μg/ml (FIG. 6)) is on record as “only protected RPE cells at high dose”.

On to `Cc1c(C)c2c(c(C)c1O)CCC(C)(C(=O)O)O2` (centres unmarked) [trolox], for which the “lysosomal integrity upon ox-LDL treatment” value in the experiment on ARPE-19 cells [2] (ARPE-19, 36 hours (FIG. 3)) is listed as “preserved lysosomal integrity”. In the experiment on ARPE-19 cells [2] (trolox 10.4 μM in the presence of ox-LDL, 36 hours), the “number of intact lysosomes per cell” value is on record as “higher number of intact lysosomes per cell compared to control”. Besides, in the experiment on ARPE-19 cells [3], the “ox-LDL-induced ROS formation in RPE cells” value was “suppressed ROS formation”. Further, in the experiment with NF-κB, the “NF-κB activation upon ox-LDL treatment” value was “suppressed pro-inflammatory transcription factor NF-κB activation”. In addition, the 50% effective concentration (EC50) in the experiment on ARPE-19 cells [1] (Homo sapiens, ARPE-19, ox-LDL 200 μg/ml, 48 hours, trolox 0.65-10.4 μM, LDH release (FIG. 2), read-out: estimated EC50, suppression of ox-LDL-induced RPE death) is about 5.4 µM. In the experiment on ARPE-19 cells [1], the “relative RPE protective activity compared with other compounds” value is reported as “significantly more effective”.
